Patent US7041694B1, “Cyclooxygenase-2 inhibition” (Cornell Research Foundation, Inc., priority 1997, dated 2006)

Legend:
[1] = system: patient with alcoholic hepatitis; experiment: Treatment of a patient with alcoholic hepatitis (Example I); type: in vivo; details: 6 mg/kg oral, daily; at the end of three weeks
Procedure: A patient with alcoholic hepatitis is admitted to a hospital complaining of nausea and upper abdominal pain. Liver function test results are total bilirubin of 4.0 mg/dl, direct bilirubin of 3.1 mg/dl, ALT of 100 IU/L, AST of 120 IU/L and prothrombin time of 15.1 seconds.
At the end of three weeks, the nausea and upper abdominal pain have resolved. Each of the blood tests has improved.

[2] = system: patient with autoimmune hepatitis; experiment: Treatment of a patient with autoimmune hepatitis (Example II); type: in vivo; details: 6 mg/kg oral for two months
Procedure: The patient is a person with new onset nausea, loss of appetite and right upper quadrant tenderness. They are noted to have elevated liver chemistries. Serologic workup is notable for positive antinuclear and antismooth muscle antibodies. They are considered to have autoimmune hepatitis. Liver biopsy is consistent with this diagnosis. […] The patient is subsequently maintained on an oral dose of 6 mg/kg of the same drug.

Row | Compound | blood tests (liver function tests: total bilirubin, direct bilirubin, ALT, AST, prothrombin time) [1] | nausea and upper abdominal pain [1] | symptoms (nausea, loss of appetite, right upper quadrant tenderness) [2]
1 | NS(=O)(=O)c1ccc(-n2nc(C(F)(F)F)cc2-c2ccc(Cl)cc2)cc1 [4-[5-(4-Chlorophenyl)-3-(trifluoromethyl)-1H-pyrazol-1-yl]benzenesulfonamide] | improved | resolved | resolution of symptoms
2 | Cc1ccc(-c2cc(C(F)(F)F)nn2-c2ccc(S(N)(=O)=O)cc2)cc1 [4-[5-(4-Methylphenyl)-3-(trifluoromethyl)-1H-pyrazol-1-yl]benzenesulfonamide] | same result |  | 
